One assay deals with T1, hPR-A (Homo sapiens, UniProt P06401).
T1 sequence (P06401 1-769 isoform P06401-2): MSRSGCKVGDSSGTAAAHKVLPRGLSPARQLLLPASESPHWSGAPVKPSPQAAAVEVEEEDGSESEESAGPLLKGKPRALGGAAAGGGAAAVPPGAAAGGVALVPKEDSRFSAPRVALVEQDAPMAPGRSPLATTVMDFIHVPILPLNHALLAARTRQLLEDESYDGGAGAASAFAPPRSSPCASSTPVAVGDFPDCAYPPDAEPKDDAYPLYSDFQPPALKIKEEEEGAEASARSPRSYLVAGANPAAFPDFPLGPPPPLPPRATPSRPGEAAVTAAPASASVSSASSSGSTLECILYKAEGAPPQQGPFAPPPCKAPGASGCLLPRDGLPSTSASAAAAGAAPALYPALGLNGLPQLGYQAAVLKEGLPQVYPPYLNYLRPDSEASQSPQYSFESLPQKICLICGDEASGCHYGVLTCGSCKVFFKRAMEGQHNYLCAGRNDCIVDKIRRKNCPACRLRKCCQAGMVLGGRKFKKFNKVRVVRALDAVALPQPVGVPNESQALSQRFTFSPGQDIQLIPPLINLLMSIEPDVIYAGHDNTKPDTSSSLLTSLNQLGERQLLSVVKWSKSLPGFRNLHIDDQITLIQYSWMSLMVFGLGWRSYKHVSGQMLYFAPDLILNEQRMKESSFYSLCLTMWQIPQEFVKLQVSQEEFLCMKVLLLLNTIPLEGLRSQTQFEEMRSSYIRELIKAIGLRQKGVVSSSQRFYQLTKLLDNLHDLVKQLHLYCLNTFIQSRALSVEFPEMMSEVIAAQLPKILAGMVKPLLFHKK
In words: Receptor competitive binding assay. Particulars: read-out: PR binding Ki.

Assay [1] concerns the target T2, hPR (Homo sapiens, UniProt P06401).
T2 sequence (P06401 1-933): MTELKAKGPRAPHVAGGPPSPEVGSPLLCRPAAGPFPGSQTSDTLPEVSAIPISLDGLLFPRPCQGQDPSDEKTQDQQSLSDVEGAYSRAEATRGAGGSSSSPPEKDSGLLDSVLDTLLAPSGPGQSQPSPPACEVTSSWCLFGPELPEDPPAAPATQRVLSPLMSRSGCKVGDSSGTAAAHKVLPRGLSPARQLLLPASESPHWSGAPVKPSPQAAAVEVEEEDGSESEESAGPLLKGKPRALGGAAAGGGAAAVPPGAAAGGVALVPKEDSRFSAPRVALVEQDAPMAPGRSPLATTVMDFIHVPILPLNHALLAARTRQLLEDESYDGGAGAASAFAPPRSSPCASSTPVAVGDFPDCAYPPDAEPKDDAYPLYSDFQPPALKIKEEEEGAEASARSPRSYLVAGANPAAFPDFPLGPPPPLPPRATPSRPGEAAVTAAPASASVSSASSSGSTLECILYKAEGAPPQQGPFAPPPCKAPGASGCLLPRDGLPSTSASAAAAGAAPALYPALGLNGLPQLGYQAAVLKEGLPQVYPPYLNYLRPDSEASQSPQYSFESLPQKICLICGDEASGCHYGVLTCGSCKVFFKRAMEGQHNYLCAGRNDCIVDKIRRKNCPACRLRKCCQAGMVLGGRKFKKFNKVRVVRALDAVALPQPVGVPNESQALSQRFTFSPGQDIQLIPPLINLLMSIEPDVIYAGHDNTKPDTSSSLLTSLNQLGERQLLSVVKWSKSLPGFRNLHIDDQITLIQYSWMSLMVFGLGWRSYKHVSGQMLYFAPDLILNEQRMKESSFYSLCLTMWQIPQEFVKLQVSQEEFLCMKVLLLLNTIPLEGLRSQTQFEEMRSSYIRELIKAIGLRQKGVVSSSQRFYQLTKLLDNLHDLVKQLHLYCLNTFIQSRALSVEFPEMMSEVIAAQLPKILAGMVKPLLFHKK
In words: hPR cotransfection assay in CV-1 cells, antagonist mode. The class given is cell-based. The note with it: for Emax: CV-1, CV-1 cells, maximal inhibition of reference agonist at EC50 concentration, read-out: hPR Antagonist CV-1 Cells Eff. (%); for IC50: CV-1 cells.
Procedure: (§1) Antagonist efficacy was determined as a function (%) of maximal inhibition of a reference agonist at EC50 concentration. All the cotransfection experiments were carried out in 96-well plates by automation (Beckman Biomomek automated workstation).

Assay [2] has as its target T3, human androgen receptor (hAR) (Homo sapiens, UniProt P10275).
T3 sequence (P10275 1-920): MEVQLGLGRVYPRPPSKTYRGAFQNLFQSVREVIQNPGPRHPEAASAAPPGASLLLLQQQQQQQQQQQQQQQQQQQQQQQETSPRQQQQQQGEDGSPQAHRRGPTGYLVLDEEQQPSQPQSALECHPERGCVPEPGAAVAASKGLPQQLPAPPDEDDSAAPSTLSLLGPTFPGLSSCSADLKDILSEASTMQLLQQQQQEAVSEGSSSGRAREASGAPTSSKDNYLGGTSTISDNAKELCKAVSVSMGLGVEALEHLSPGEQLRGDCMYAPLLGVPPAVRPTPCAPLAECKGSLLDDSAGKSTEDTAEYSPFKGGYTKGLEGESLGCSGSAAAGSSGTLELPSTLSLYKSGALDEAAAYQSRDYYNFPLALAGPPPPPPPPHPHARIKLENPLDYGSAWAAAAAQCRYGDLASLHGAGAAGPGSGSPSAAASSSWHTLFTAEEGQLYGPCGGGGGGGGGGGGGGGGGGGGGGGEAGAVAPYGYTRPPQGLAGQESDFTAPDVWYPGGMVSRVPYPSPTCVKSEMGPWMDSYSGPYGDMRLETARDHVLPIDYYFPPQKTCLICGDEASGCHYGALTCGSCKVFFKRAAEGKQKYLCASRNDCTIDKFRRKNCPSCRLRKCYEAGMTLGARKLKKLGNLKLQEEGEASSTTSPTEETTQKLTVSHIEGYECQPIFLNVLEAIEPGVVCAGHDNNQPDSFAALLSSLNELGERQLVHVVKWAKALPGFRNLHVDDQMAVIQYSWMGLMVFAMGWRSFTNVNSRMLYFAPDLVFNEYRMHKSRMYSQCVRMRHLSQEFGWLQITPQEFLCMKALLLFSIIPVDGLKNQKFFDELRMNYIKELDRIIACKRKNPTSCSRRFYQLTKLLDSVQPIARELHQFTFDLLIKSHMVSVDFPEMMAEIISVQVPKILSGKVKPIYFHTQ
Put plainly: hAR cotransfection assay (potency ratio to hPR). The format is cell-based. Particulars: receptor-selectivity potency ratio, cotransfection assays.
Procedure: as §1

The target in assay [3] is T2, hPR. In words: hPR cotransfection assay in CV-1 cells, agonist mode. The class given is cell-based. Particulars: for Emax: CV-1, CV-1 cells, relative to maximal response of progesterone as 100%, read-out: hPR Agonist CV-1 Cells Eff. (%).
Procedure: as §1
Where [4] appears, read: CV-1 cells, read-out: hPR Agonist CV-1 Cells EC50.
The mark [5] stands for this setting: Tables 3 and 4, values without footnote, read-out: hPR agonist potencies (EC50 in nM) in the cotransfection assay.

Each structure is given as a SMILES string. Read-outs that look alike come from different tables or passages of the source. A value given as a limit tells only on which side of the number the result lay.

With `CC1=CC(C)(C)Nc2ccc3c(c21)/C(=C/c1cccc(F)c1)Oc1c(F)cc(F)cc1-3` [Compound 15, 7,9-difluoro-5(Z)-(3-fluorobenzylidene)-1,2-dihydro-2,2,4-trimethyl-5H-chromeno[3,4-f]quinoline], the Ki at hPR-A stood at 9.7 nM. The Emax at hPR [1] is less than 20%; at hPR [3] it was 191%. Besides, the IC50 against hPR [1] is more than 10000 nM. Besides, in assay [2], the “hAR EC50 or IC50/hPR EC50” value is 2. The EC50 at hPR [3] (setting [4]) and on hPR [3] (setting [5]) was 3.8 nM in each case.
Take `CC1=CC(C)(C)Nc2ccc3c(c21)C(c1ccccc1)Oc1c(F)cc(F)cc1-3` (racemic) [Compound 33, (±)-7,9-difluoro-5-phenyl-1,2-dihydro-2,2,4-trimethyl-5H-chromeno[3,4-f]quinoline]: the Ki on hPR-A came out at 2.7 nM. The Emax was less than 20% at hPR [1] and 85% on hPR [3]. The IC50 at hPR [1] is more than 10000 nM. In addition, the “hAR EC50 or IC50/hPR EC50” value in assay [2] is 37. Moreover, the EC50 on hPR [3] (setting [4]) and on hPR [3] (setting [5]) was 3.5 nM each time.
Turning to `CC1=CC(C)(C)Nc2ccc3c(c21)/C(=C/c1cc(F)ccc1F)Oc1c(F)cc(F)cc1-3` [Compound 17, 7,9-difluoro-5(Z)-(2,5-difluorobenzylidene)-1,2-dihydro-2,2,4-trimethyl-5H-chromeno[3,4-f]quinoline], the inhibitory constant (Ki) at hPR-A stood at 9.5 nM. Further, the Emax is less than 20% on hPR [1] and 169% on hPR [3]. At hPR [1], the IC50 is more than 10000 nM. The “hAR EC50 or IC50/hPR EC50” value in assay [2] was 622. Besides, the EC50 at hPR [3] (setting [4]) and at hPR [3] (setting [5]) was 2.9 nM throughout.
Take `CC1=CC(C)(C)Nc2ccc3c(c21)C(c1ccc(Cl)c(C)c1)Oc1c(F)cc(F)cc1-3` (racemic) [Compound 37, (±)-7,9-difluoro-5-(4-chloro-3-methylphenyl)-1,2-dihydro-2,2,4-trimethyl-5H-chromeno[3,4-f]quinoline]: at hPR-A, the Ki amounted to 2.2 nM. The Emax at hPR [1] is less than 20%; on hPR [3], 89%. Besides, the IC50 against hPR [1] is more than 10000 nM. Besides, in assay [2], the “hAR EC50 or IC50/hPR EC50” value is listed as 558. The EC50 on hPR [3] (setting [4]) and on hPR [3] (setting [5]) was 1.24 nM in each case.
On to `CC1=CC(C)(C)Nc2ccc3c(c21)C(c1cccc(C)c1)Oc1c(F)cc(F)cc1-3` (racemic) [Compound 34, (±)-7,9-difluoro-5-(3-methylphenyl)-1,2-dihydro-2,2,4-trimethyl-5H-chromeno[3,4-f]quinoline], for which, on hPR-A, the Ki worked out at 2.5 nM. Also, the Emax on hPR [1] is less than 20%; at hPR [3], 114%. For the same compound, the IC50 on hPR [1] was more than 10000 nM. In addition, the “hAR EC50 or IC50/hPR EC50” value in assay [2] is recorded as 8.5. Further, the EC50 on hPR [3] (setting [4]) and on hPR [3] (setting [5]) was 1.2 nM each time.
Take `COc1ccc(F)cc1/C=C1\Oc2c(F)cc(F)cc2-c2ccc3c(c21)C(C)=CC(C)(C)N3` [Compound 26, 7,9-difluoro-5(Z)-(2-methoxy-5-fluorobenzylidene)-1,2-dihydro-2,2,4-trimethyl-5H-chromeno[3,4-f]quinoline]: the Ki on hPR-A was 9 nM. For the same compound, the Emax at hPR [1] is less than 20%; on hPR [3], 159%. Moreover, the IC50 at hPR [1] was more than 10000 nM. Besides, the “hAR EC50 or IC50/hPR EC50” value in assay [2] is 742. Also, the EC50 on hPR [3] (setting [4]) and on hPR [3] (setting [5]) was 0.6 nM each time.
Consider `CC1=CC(C)(C)Nc2ccc3c(c21)C(c1cc2ccccc2s1)Oc1c(F)cc(F)cc1-3` (racemic) [Compound 63, (±)-7,9-difluoro-5-(benzo[b]thien-2-yl)-1,2-dihydro-2,2,4-trimethyl-5H-chromeno[3,4-f]quinoline], for which the Ki on hPR-A turned out to be 6.5 nM. Also, the Emax on hPR [1] is less than 20%; at hPR [3], 154%. Moreover, the IC50 on hPR [1] is more than 10000 nM. Further, in assay [2], the “hAR EC50 or IC50/hPR EC50” value was 136. Further, the EC50 on hPR [3] (setting [4]) is 2.3 nM.
With `CC1=CC(C)(C)Nc2ccc3c(c21)C(c1cccc(Cl)c1)Oc1c(F)cc(F)cc1-3` (racemic) [Compound 41, (±)-7,9-difluoro-5-(3-chlorophenyl)-1,2-dihydro-2,2,4-trimethyl-5H-chromeno[3,4-f]quinoline], on hPR-A, the Ki is 2.8 nM. In addition, the Emax at hPR [1] is less than 20%; on hPR [3] it was 146%. This compound came in with an IC50 against hPR [1] of more than 10000 nM. In addition, in assay [2], the “hAR EC50 or IC50/hPR EC50” value worked out at 252. Moreover, the EC50 on hPR [3] (setting [4]) and at hPR [3] (setting [5]) was 1.87 nM each time.
On to `CC#CC1Oc2c(F)cc(F)cc2-c2ccc3c(c21)C(C)=CC(C)(C)N3` (racemic) [Compound 74, (±)-7,9-difluoro-5-(1-propynyl)-1,2-dihydro-2,2,4-trimethyl-5H-chromeno[3,4-f]quinoline], for which, at hPR-A, the Ki amounted to 3.5 nM. Also, the Emax at hPR [1] was less than 20%; on hPR [3], 89%. Moreover, the IC50 against hPR [1] is more than 10000 nM. The “hAR EC50 or IC50/hPR EC50” value in assay [2] is listed as 100. For the same compound, the EC50 at hPR [3] (setting [4]) was 0.7 nM.
Regarding `CC1=CC(C)(C)Nc2ccc3c(c21)/C(=C/c1ccncc1C)Oc1c(F)cc(F)cc1-3` [Compound 20, 7,9-difluoro-5(Z)-(3-methyl-4-picolylidene)-1,2-dihydro-2,2,4-trimethyl-5H-chromeno[3,4-f]quinoline], the Ki at hPR-A was 2.9 nM. For the same compound, the results for the Emax at hPR [1] and at hPR [3] were less than 20% and 147%, respectively. Moreover, the IC50 at hPR [1] is more than 10000 nM. The “hAR EC50 or IC50/hPR EC50” value in assay [2] was 8. For the same compound, the EC50 at hPR [3] (setting [4]) and on hPR [3] (setting [5]) was 2.8 nM each time.
